Data: patent US7091351B2, “Vanadium compounds for treating cancer” (Parker Hughes Institute, priority 1998, dated 2006)

What was measured:
Assay type in all cases: cell-based, human
[1] = test system: Tera-2 testicular cancer cells; test: MTT cytotoxicity assay of vanadocenes, TERA-2 cells; settings: 24 h, 1.9-250 μM
Description: (§1) Human testicular cancer cell lines, Tera-2 (embryonal carcinoma) and Ntera-2 (pluripotent embryonal carcinoma) were obtained from the American Type Culture Collection (ATCC) (Rockeville, Md.) and propagated in T-25, T-75, or T-150 cm^2 tissue culture flasks (Corning Corp., Corning, N.Y.) in McCoy's 5A medium and Dulbecco's modified Eagle's medium respectively. Both media were supplemented with 10% fetal calf serum (FCS), 4 mM glutamine, 100 U/ml penicillin G, and […] streptomycin sulfate. All tissue culture reagents were obtained from Life Technologies Inc. (GIBCO-BRL), Gaithersburg, Md. Cell lines were cultivated for a minimum of two passages after thawing prior to experimentation. Other cell lines that were used in this study were the human B-lineage acute lymphoblastic leukemia (ALL) cell line NALM-6. Uckun, F. M., Evans, W. E., Forsyth, C. J., Waddick, K. G., Tuel-Ahlgren, L., Chelstrom, L. M., Burkhardt, A., Bolen, J., Myers, D. E. Biotherapy of B-cell precursor leukemia by targeting genistein to CD19-associated tyrosine kinase. Science (Washington DC) 267:886–91, 1995; T-lineage ALL cell line MOLT-3, Waurzyniak, B., Shneider, E. A., Tumer, N., Yanishevski, Y., Gunther, R., Chelstrom, L., Wendorf, H., Myers, D. E., Irvin, J. D., Messinger, Y., Ek, O., Zeren, T., Chandan-Langlie, M., Evans, W. E., Uckun, F. M. In vivo toxicity, pharmacokinetics, and antileukemic activity of TXU (anti-CD7)-pokeweed antiviral protein immunotoxin. Clinical Cancer Research 3:881–890, 1997; AML cell line HL-60, Perentesis, J. P., Waddick, K. G., Bendel, A. E., Shao, Y., Warman, B. E., Chandan-Langlie, M., and Uckun, F. M. Induction of apoptosis in multi-drug resistant andradiation-resistant acute myeloid leukemia cells by a recombinant fusion toxin directed against the granulocyte macrophage colony stimulating factor receptor. Clin. Cancer Res. 3:347–355, 1997; breast cancer cell lines MDA-MB-231 and BT-20, Uckun, F. M., Narla, R. K., Jun, X., Zeren, T., Venkatachalam, T., Waddick, K. G., Rostostev, A., Myers, D. E. Cytotoxic activity of EGF-genstein against breast cancer cells. Clin. Cancer Res. 4:901–912, 1998; glioblastoma cell lines U87 and U373, Narla, R. K., Liu, X., Myers, D. E., and Uckun, F. M. 4-(3′-Bromo-4′hydroxylphenyl)-amino-6,7-dimethoxyquinazoline (WHI-P154): A novel quinazoline derivative with potent cytotoxic activity against human glioblastoma cells. Clin. Cancer Res. 4:1405–1414, 1998.
(§2) MTT (3-[4,5-dimethyl thiazol-2-yl]-2,5-diphenyltetrazolium bromide)-based colorimetric assays were used for evaluation of the cytotoxicity of vanadocene compounds. Mosmann, T. Rapid colorimetric assay for cellular growth and survival: application to proliferation and cytotoxicity assays. J. Immunol. Methods, 65: 55–63, 1983. Briefly, cells were harvested with 0.125% (w/v) trypsin-0.02% EDTA (GIBCO-BRL) from exponential-phase maintenance cultures and centrifuged (300 g×5 min). After suspension and counting, cells were dispensed within triplicate 96-well tissue culture plates in 100 μl volumes. After 24 h incubation, the culture medium was discarded and replaced with 100 μl of fresh medium containing serial two-fold dilutions of drugs in medium to yield 1.9 μM to 250 μM. All compounds were reconstituted in DMSO to a concentration of 100 mM, and the stock solution was made fresh for each experiment. Control wells consisted of medium containing 0.25% of DMSO alone were used for solvent control. Culture plates were then incubated for 24 h before adding 10 μl of MTT solution (5 mg/ml in PBS) to each well. Wells containing only medium and MTT were used as controls for each plate. The tetrazolium/formazan reaction was allowed to proceed for 4 h at 37° C., and then 100 μl of the solubilization buffer (10% sodium dodecyl sulfate in 0.1% HCl) were added to all wells and mixed thoroughly to dissolve the dark blue formazan crystals. […]

[2] = test system: NALM-6 B-lineage acute lymphoblastic leukemia cells; test: MTT cytotoxicity assay of vanadocenes, NALM-6 cells; settings: 24 h
Description: as §1
as §2, with “control.” for “control. Culture plates were then incubated for 24 h before adding 10 μl of MTT solution (5 mg/ml in PBS) to each well. Wells containing only medium and MTT were used as controls for each plate. The tetrazolium/formazan reaction was allowed to proceed for 4 h at 37° C., and then 100 μl of the solubilization buffer (10% sodium dodecyl sulfate in 0.1% HCl) were added to all wells and mixed thoroughly to dissolve the dark blue formazan crystals.”

U373 glioblastoma cells = test: MTT cytotoxicity assay of vanadocenes, U373 cells; settings: 24 h
Description: as §1, §2

[3] = test system: Tera-2 testicular cancer cells; test: Flow cytometric TUNEL apoptosis assay, TERA-2 cells; settings: 24 h, TUNEL-positive nuclei
Description: (§3) A flow cytometric two-color terminal […] transferase (TdT)-mediated digoxigenin-uridine triphosphate (dUTP) nick-end labeling assay (TUNEL) was employed to detect apoptotic nuclei. Gavrieli, Y., Sherman, Y., Ben-Sasson, S. A. Identification of programmed cell death in situ via specific labeling of nuclear DNA fragmentation. J. Cell Biol., 119: 493–501, 1992. Exponentially growing cells (10^6/ml) were incubated in DMSO alone (0.1%) or treated with 100 μM each of the 16 vanadocenes (VDB, VDC, VMDC, VDI, VDA, VDCN, VDOCN, VDSCN, VDSeCN, VDT, VDCO, VDFe, VD(acac), VDH, VD(dpy), and VD(dtc) in 0.1% DMSO for 24 h. Cells were washed in PBS, fixed in 4% paraformaldehyde in PBS for 15 min on ice. Following two washings in PBS, they were permeabilized with 0.1% Triton X-100 in 0.1% sodium citrate for 2 min on ice, and washed twice in PBS. Labeling of exposed 3′-hydroxyl (3′-OH) ends of fragmented nuclear DNA was performed using TdT and fluorescein isothiocyanate (FITC)-conjugated dUTP according to the manufacturer's recommendations (Boehringer Mannheim, Indianapolis, Ind.). Cells were counterstained with 5 μg/ml PI. Control samples included: (i) untreated cells; (ii) cells incubated with the reaction mixture without the TdT enzyme. Cells were analyzed with a FACS Calibur flow cytometer (Becton Dickinson, Mountain View, Calif.). Relative DNA content (PI) was detected with band-pass filter 585/42, and dUTP incorporation (FITC) was detected with band-pass filter 530/30. Fluorescence was compensated for in the acquisition software using single-label control samples. Data were acquired in listmode, gated to 10,000 events per sample, and analyzed with the use of CELLQuest software program (Becton Dickinson). […] Vanadocene-induced apoptosis is shown by an increase in the number of cells staining with FITC-dUTP. The M1 and M2 gates were used to demarcate non-apoptotic and apoptotic PI-counterstained cell populations, respectively. TUNEL assays were performed using two testicular cell lines Tera-2 and Ntera-2 following exposure to each of the 16 vanadocenes. In other experiments, MC540 binding (as an early marker of apoptosis) and PI permeability (as a marker of advanced stage apoptosis) were simultaneously measured in human cancer cells 24 hours after exposure to vanadocenes, as previously described. Uckun, F. M., Narla, R. K., Jun, X., Zeren, T., Venkatachalam, T., Waddick, K. G., Rostostev, A., Myers, D. E. Cytotoxic activity of EGF-genstein against breast cancer cells. Clin. Cancer Res. 4:901–912, 1998. Vassilev, A., Ozer, Z., Navara, C., Mahajan, S., and Uckun, F. M. Bruton's tyrosine kinase as an inhibitor of the Fas/CD95 death-inducing signaling complex. J. Biol. Chem. 274:1646–56, 1999. Whole cells were analyzed using a FACStar Plus flow cytometer (Becton Dickinson, San Jose, Calif.). All analyses were done using 488 nm excitation from an argon laser. MC540 and PI emissions were split with a 600 nm short pass dichroic mirror and a 575 nm band pass filter was placed in front of one photomultiplier tube to measure MC540 emission and a 635 nm band pass filter was used for PI emission.

[4] = test system: Ntera-2 testicular cancer cells; test: Flow cytometric TUNEL apoptosis assay, NTERA-2 cells; settings: 24 h, TUNEL-positive nuclei
Description: as §3

[5] = test system: Ntera-2 testicular cancer cells; test: MTT cytotoxicity assay of vanadocenes, NTERA-2 cells; settings: 24 h, 1.9-250 μM
Description: as §1, §2

U87 glioblastoma cells = test: MC540 binding / PI permeability apoptosis assay, U87; settings: 100 μM, 24 hours
Description: (§4) A flow cytometric two-color terminal […] transferase (TdT)-mediated digoxigenin-uridine triphosphate (dUTP) nick-end labeling assay (TUNEL) was employed to detect apoptotic nuclei. Gavrieli, Y., Sherman, Y., Ben-Sasson, S. A. Identification of programmed cell death in situ via specific labeling of nuclear DNA fragmentation. J. Cell Biol., 119: 493–501, 1992. […] Cells were analyzed with a FACS Calibur flow cytometer (Becton Dickinson, Mountain View, Calif.). Relative DNA content (PI) was detected with band-pass filter 585/42, and dUTP incorporation (FITC) was detected with band-pass filter 530/30. Fluorescence was compensated for in the acquisition software using single-label control samples. Data were acquired in listmode, gated to 10,000 events per sample, and analyzed with the use of CELLQuest software program (Becton Dickinson). […] In other experiments, MC540 binding (as an early marker of apoptosis) and PI permeability (as a marker of advanced stage apoptosis) were simultaneously measured in human cancer cells 24 hours after exposure to vanadocenes, as previously described. […] Whole cells were analyzed using a FACStar Plus flow cytometer (Becton Dickinson, San Jose, Calif.). […]

[6] = test system: BT-20 breast cancer cells; test: MC540 binding / PI permeability apoptosis assay, BT-20; settings: 100 μM, 24 hours
Description: as §4

[7] = test system: HL60 acute myeloid leukemia cells; test: MC540 binding / PI permeability apoptosis assay, HL-60; settings: 100 μM, 24 hours
Description: as §4

[8] = test system: MDA-MB-231 breast cancer cells; test: MC540 binding / PI permeability apoptosis assay, MDA-MB-231; settings: 100 μM, 24 hours
Description: as §4

Row | Structure (SMILES) | IC50 [1] | IC50 [2] | IC50 (U373 glioblastoma cells) | % Apoptosis at 100 μM TERA-2 [3] | % Apoptosis at 100 μM NTERA-2 [4] | IC50 [5] | cells with dual MC540/PI fluorescence (advanced stage apoptosis), U87 (U87 glioblastoma cells) | total percentage of apoptotic cells (early and advanced stage), U87 (U87 glioblastoma cells) | cells with dual MC540/PI fluorescence (advanced stage apoptosis), BT-20 [6] | total percentage of apoptotic cells (early and advanced stage), BT-20 [6] | cells with dual MC540/PI fluorescence (advanced stage apoptosis), HL-60 [7] | total percentage of apoptotic cells (early and advanced stage), HL-60 [7] | cells with dual MC540/PI fluorescence (advanced stage apoptosis), MDA-MB-231 [8] | total percentage of apoptotic cells (early and advanced stage), MDA-MB-231 [8]
1 | [I-].[I-].[V+2].c1cc[cH-]c1.c1cc[cH-]c1 [VDI, VCp2I2] | 221 µM | 18 µM | 5 µM | 72 (71, 73) % | 57 (46, 69) % | 204 µM | – | – | – | – | – | – | – | –
2 | [Br-].[Br-].[V+2].c1cc[cH-]c1.c1cc[cH-]c1 [VDB, VCp2Br2] | 154 µM | 17 µM | 62 µM | 84 (83, 86) % | 93 (93, 94) % | 70 µM | – | – | – | – | – | – | – | –
3 | C1=C[CH]([V+2][CH]2C=CC=C2)C=C1.[N-]=C=[Se].[N-]=C=[Se] [VDSeCN, VCp2(NCSe)2] | 9 µM | 3 µM | 2 µM | 78 (75, 80) % | 99.6 ± 0.2 (N = 4) % | 22 µM | 79% | 90% | 40% | 61% | 51% | 98% | 67% | 72%
4 | [N-]=[N+]=[N-].[N-]=[N+]=[N-].[V+2].c1cc[cH-]c1.c1cc[cH-]c1 [VDA, VCp2(N3)2] | 70 µM | 16 µM | 51 µM | 85 (78, 92) % | 85 (78, 93) % | 68 µM | – | – | – | – | – | – | – | –
